Activity calls are given as the source filed them. No cut-off for these calls is given here.
Key:
[1] = test system: 4T1; experiment: Antitumor activity against mouse 4T1 cells implanted in Balb/c mouse assessed as appearance of larger intercellular gaps at 80 mg/kg, IT administered once every 4 days for 14 days in presence of olive oil by TEM analysis; format: functional, organism-based; conditions: time 14.0 day
[2] = Toxicity in Kunming mouse assessed as change in kidney lesions at 240 to 469 mg/kg, ip administered for 14 days by H and E staining based analysis; format: organism-based; conditions: in vivo, 336 h, dose 240-469 mg/kg, time 14 day
[3] = test system: MDA-MB-231; experiment: Induction of cell cycle arrest in human MDA-MB-231 cells assessed as accumulation of cells at G0/G1 phase at 1 uM incubated for 24 hrs by PI staining based flow cytometric analysis (reference value: 57.31%); format: functional
[4] = test system: MDA-MB-231; experiment: Induction of cell cycle arrest in human MDA-MB-231 cells assessed as accumulation of cells at S phase at 1 uM incubated for 24 hrs by PI staining based flow cytometric analysis (reference value: 8.71%); format: functional
[5] = Toxicity in female Balb/c mouse implanted with mouse 4T1 cells assessed as abnormalities in lungs at 35 mg/kg, ip administered once every 2 days for 14 days; format: organism-based; conditions: in vivo, 336 h, time 14 day
[6] = test system: 4T1; experiment: Antitumor activity against mouse 4T1 cells implanted in Balb/c mouse assessed as lighter tumor at 200 mg/kg, TOP administration once every 2 days for 14 days; format: functional, organism-based; conditions: time 14.0 day
[7] = Toxicity in female Balb/c mouse implanted with mouse 4T1 cells assessed as abnormal behaviour at 80 mg/kg, IT administered once every 4 days in presence of olive oil; format: organism-based; conditions: in vivo, other, 96 h
[8] = Toxicity in female Balb/c mouse implanted with mouse 4T1 cells assessed as abnormalities in heart at 35 mg/kg, ip administered once every 2 days for 14 days; format: organism-based; conditions: in vivo, 336 h, time 14 day
[9] = test system: 4T1; experiment: Antitumor activity against mouse 4T1 cells implanted in Balb/c mouse assessed as tumor suppression rate at 35 mg/kg, ip administered once every 2 days for 14 days relative to control; format: functional
[10] = Toxicity in Kunming mouse assessed as change in heart lesions at 240 to 469 mg/kg, ip administered for 14 days by H and E staining based analysis; format: organism-based; conditions: in vivo, 336 h, dose 240-469 mg/kg, time 14 day
[11] = test system: 4T1; experiment: Antitumor activity against mouse 4T1 cells implanted in Balb/c mouse assessed as tumor inhibition rate at 80 mg/kg, IT administered once every 4 days in presence of olive oil relative to control; format: functional; parameters: scale not given: the % may be the effect or the level left
[12] = test system: HepG2; experiment: Antiproliferative activity against human HepG2 cells assessed as inhibition of cell proliferation incubated for 48 hrs by CCK-8 assay; format: functional, cell-based; conditions: HepG2, 48 h
[13] = test system: HUVEC; experiment: Cytotoxicity against human HUVEC cells; format: toxicity, cell-based
[14] = test system: MDA-MB-231; experiment: Induction of cell cycle arrest in human MDA-MB-231 cells assessed as accumulation of cells at G2/M phase at 1 uM incubated for 24 hrs by PI staining based flow cytometric analysis (reference value: 33.98%); format: functional
[15] = Toxicity in female Balb/c mouse implanted with mouse 4T1 cells assessed as change in body weight at 25 to 35 mg/kg, ip administered once every 2 days; format: organism-based; conditions: in vivo, 48 h, dose 25-35 mg/kg, time 2 day
[16] = test system: MDA-MB-231; experiment: Induction of apoptosis in human MDA-MB-231 cells assessed as increase in red fluorescence at 1 uM incubated for 24 hrs in presence of doxorubicin by fluorescence microscopic analysis; format: functional, cell-based
[17] = Nephrotoxicity in Kunming mouse assessed as change in BUN level administered intraperitoneally for 14 days (reference value: 8.65 +/- 2.66 U); format: toxicity; conditions: in vivo, ip, 336 h, time 14 day
[18] = test system: 4T1; experiment: Antitumor activity against mouse 4T1 cells implanted in Balb/c mouse assessed as reduction in tumor size at 80 mg/kg, IT administered once every 4 days in presence of olive oil; format: functional, organism-based
[19] = Toxicity in female Balb/c mouse implanted with mouse 4T1 cells assessed as behavioural changes at 25 to 35 mg/kg, ip administered once every 2 days; format: organism-based; conditions: in vivo, 48 h, dose 25-35 mg/kg, time 2 day
[20] = test system: 4T1; experiment: Antitumor activity against mouse 4T1 cells implanted in Balb/c mouse assessed as smaller tumor at 200 mg/kg, TOP administration once every 2 days for 14 days; format: functional, organism-based; conditions: time 14.0 day
[21] = test system: 4T1; experiment: Antitumor activity against mouse 4T1 cells implanted in Balb/c mouse assessed as reduction in tumor size at 25 to 35 mg/kg, ip administered once every 2 days 14 days; format: functional, organism-based; conditions: dose 25-35 mg/kg, time 14.0 day
[22] = Toxicity in Kunming mouse assessed as appearance of mononuclear macrophages in alveolar lumen at 240 to 469 mg/kg, ip administered for 14 days by H and E staining based analysis; format: organism-based; conditions: in vivo, 336 h, dose 240-469 mg/kg, time 14 day
[23] = Toxicity in female Balb/c mouse implanted with mouse 4T1 cells assessed as mortality at 25 to 35 mg/kg, ip administered once every 2 days; format: organism-based; conditions: in vivo, 48 h, dose 25-35 mg/kg, time 2 day
[24] = Toxicity in female Balb/c mouse implanted with mouse 4T1 cells assessed as tumor metastasis to lungs at 25 mg/kg, ip administered once every 2 days for 14 days; format: organism-based; conditions: in vivo, 336 h, time 14 day
[25] = test system: MDA-MB-231; experiment: Induction of apoptosis in human MDA-MB-231 cells assessed as late apoptotic cells at 1 uM incubated for 24 hrs by Annexin-V/PI staining based flow cytometric analysis (reference value: 3.24%); format: functional
[26] = Toxicity in Kunming mouse assessed as lethal dose administered intraperitoneally for 14 days; conditions: in vivo, route ip, time 14 day
[27] = test system: 4T1; experiment: Antitumor activity against mouse 4T1 cells implanted in Balb/c mouse assessed as appearance of irregular necrotic foci at 25 mg/kg, ip administered once every 2 days for 14 days; format: functional, organism-based; conditions: time 14.0 day
[28] = test system: MDA-MB-231; experiment: Induction of apoptosis in human MDA-MB-231 cells assessed as viable cells at 1 uM incubated for 24 hrs by Annexin-V/PI staining based flow cytometric analysis (reference value: 93.37%); format: functional; conditions: read-out: Activity
[29] = test system: MDA-MB-231; experiment: Induction of apoptosis in human MDA-MB-231 cells assessed as increase in green fluorescence at 1 uM incubated for 24 hrs in presence of doxorubicin by fluorescence microscopic analysis; format: functional, cell-based
[30] = test system: MDA-MB-231; experiment: Induction of apoptosis in human MDA-MB-231 cells assessed as early apoptotic cells at 1 uM incubated for 24 hrs by Annexin-V/PI staining based flow cytometric analysis (reference value: 2.69%); format: functional
[31] = Toxicity in Kunming mouse assessed as change in liver lesions at 240 to 469 mg/kg, ip administered for 14 days by H and E staining based analysis; format: organism-based; conditions: in vivo, 336 h, dose 240-469 mg/kg, time 14 day
[32] = test system: 4T1; experiment: Antitumor activity against mouse 4T1 cells implanted in Balb/c mouse assessed as appearance of chromatin aggregation at 25 to 35 mg/kg, ip administered once every 2 days for 14 days by TEM analysis; format: functional, organism-based; conditions: dose 25-35 mg/kg, time 14.0 day
[33] = Cardiotoxicity in Kunming mouse assessed as change in CK level administered intraperitoneally for 14 days (reference value: 851.75 +/- 87.81 U); format: toxicity; conditions: in vivo, ip, 336 h, time 14 day
[34] = test system: 4T1; experiment: Antitumor activity against mouse 4T1 cells implanted in Balb/c mouse assessed as appearance of central tumor necrosis at 35 mg/kg, ip administered once every 2 days for 14 days relative to control; format: functional; conditions: time 14 day
[35] = test system: 4T1; experiment: Antitumor activity against mouse 4T1 cells implanted in Balb/c mouse assessed as appearance of vacuolation at 80 mg/kg, IT administered once every 4 days for 14 days in presence of olive oil by TEM analysis; format: functional, organism-based; conditions: time 14.0 day

Cc1[nH]c2ccccc2c1C1=C(F)C(=O)C(F)=C(N2CCOCC2)C1=O
Activity [1]: Active
Activity [2]: Non-toxic
Activity [3]: 32.15%
Activity [4]: 4.21%
Activity [5]: Non-toxic
Activity [6]: Active
Activity [7]: Non-toxic
Activity [8]: Non-toxic
Activity [9]: 50%
Activity [10]: Non-toxic
Activity [11]: 41.9%
IC50 [12]: 3.94 µM
Activity [13]: Toxic
Activity [14]: 63.64%
Activity [15]: Non-toxic
Activity [16]: Active; Compound Showed More Effect Than Mitoxantrone Treated Group
Activity [17]: 6.26 U
Activity [18]: Active
Activity [19]: Non-toxic
Activity [20]: Active
Activity [21]: Active
Activity [22]: Toxic
Activity [23]: Non-toxic
Activity [24]: Toxic
Activity [25]: 26.4%
LD50 at 336 h [26]: 385 mg/kg
Activity [27]: Active
viability at 1 µM [28]: 45.1%
Activity [29]: Active; Compound Showed More Effect Than Mitoxantrone Treated Group
Activity [30]: 24.53%
Activity [31]: Non-toxic
Activity [32]: Active
Activity [33]: 812 U/L
Activity [34]: 100%
Activity [35]: Active

— ChEMBL document CHEMBL6114979, “Discovery of 3-indolylbenzoquinone derivatives with therapeutic potential for breast cancer” (Bioorg Med Chem, 2025)
